Measured values taken from article PMC7316778 (Nature Communications, 2020).
Read-outs that look alike come from different tables or passages of the source.

Tests used:
Test in all cases: SelectScreen kinase assay
PRKG2 (PKG2) = PRKG2 (PKG2) (Homo sapiens, UniProt Q13237)
Procedure: (§1) Selectivity profiling assays were performed by the Invitrogen SelectScreen™ Services. […] The concentration of ATP was selected to be equal to the KM, unless indicated otherwise.

LATS2 = target: T1, LATS2 (Homo sapiens, UniProt Q9NRM7); conditions: for Inhibition at 1 µM (%): LATS2, LanthaScreen Binding
T1 sequence (Q9NRM7 1-1088): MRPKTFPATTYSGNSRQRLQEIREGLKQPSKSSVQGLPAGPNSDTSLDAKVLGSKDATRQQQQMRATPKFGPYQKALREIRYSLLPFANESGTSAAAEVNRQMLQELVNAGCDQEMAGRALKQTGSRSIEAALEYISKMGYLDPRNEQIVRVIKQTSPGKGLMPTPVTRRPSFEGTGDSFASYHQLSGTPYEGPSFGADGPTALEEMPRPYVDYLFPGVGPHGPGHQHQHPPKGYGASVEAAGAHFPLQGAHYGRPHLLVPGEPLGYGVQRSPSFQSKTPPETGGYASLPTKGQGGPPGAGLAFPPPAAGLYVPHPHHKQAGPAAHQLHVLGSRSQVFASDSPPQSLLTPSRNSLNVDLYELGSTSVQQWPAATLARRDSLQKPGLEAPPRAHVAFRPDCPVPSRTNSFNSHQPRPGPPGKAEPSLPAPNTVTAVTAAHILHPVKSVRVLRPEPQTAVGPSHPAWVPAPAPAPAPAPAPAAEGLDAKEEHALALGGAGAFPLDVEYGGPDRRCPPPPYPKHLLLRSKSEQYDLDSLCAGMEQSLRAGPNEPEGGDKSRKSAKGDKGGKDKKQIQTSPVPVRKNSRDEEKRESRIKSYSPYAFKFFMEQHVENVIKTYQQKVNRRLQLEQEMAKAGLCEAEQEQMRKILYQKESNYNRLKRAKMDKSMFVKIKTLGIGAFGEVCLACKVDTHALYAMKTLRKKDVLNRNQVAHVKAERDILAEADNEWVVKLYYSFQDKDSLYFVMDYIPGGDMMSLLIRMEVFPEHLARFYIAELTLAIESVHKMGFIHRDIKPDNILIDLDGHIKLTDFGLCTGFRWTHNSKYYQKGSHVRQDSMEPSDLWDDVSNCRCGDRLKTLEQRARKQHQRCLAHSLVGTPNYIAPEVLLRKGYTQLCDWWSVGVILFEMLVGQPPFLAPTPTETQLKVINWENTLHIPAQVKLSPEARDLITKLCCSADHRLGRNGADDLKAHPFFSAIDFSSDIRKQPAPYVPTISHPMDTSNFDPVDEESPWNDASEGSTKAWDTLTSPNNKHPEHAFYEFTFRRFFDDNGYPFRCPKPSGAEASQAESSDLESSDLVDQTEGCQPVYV
Procedure: as §1

BMPR1B (ALK6) = BMPR1B (ALK6) (Homo sapiens, UniProt O00238)
Procedure: as §1

STK33 = STK33 (Homo sapiens, UniProt Q9BYT3)
Procedure: as §1

PRKD2 (PKD2) = target: T2, PRKD2 (PKD2) (Homo sapiens, UniProt Q9BZL6); conditions: for Inhibition at 1 µM (%): ZLYTE, ATP Km app
T2 sequence (Q9BZL6 1-878): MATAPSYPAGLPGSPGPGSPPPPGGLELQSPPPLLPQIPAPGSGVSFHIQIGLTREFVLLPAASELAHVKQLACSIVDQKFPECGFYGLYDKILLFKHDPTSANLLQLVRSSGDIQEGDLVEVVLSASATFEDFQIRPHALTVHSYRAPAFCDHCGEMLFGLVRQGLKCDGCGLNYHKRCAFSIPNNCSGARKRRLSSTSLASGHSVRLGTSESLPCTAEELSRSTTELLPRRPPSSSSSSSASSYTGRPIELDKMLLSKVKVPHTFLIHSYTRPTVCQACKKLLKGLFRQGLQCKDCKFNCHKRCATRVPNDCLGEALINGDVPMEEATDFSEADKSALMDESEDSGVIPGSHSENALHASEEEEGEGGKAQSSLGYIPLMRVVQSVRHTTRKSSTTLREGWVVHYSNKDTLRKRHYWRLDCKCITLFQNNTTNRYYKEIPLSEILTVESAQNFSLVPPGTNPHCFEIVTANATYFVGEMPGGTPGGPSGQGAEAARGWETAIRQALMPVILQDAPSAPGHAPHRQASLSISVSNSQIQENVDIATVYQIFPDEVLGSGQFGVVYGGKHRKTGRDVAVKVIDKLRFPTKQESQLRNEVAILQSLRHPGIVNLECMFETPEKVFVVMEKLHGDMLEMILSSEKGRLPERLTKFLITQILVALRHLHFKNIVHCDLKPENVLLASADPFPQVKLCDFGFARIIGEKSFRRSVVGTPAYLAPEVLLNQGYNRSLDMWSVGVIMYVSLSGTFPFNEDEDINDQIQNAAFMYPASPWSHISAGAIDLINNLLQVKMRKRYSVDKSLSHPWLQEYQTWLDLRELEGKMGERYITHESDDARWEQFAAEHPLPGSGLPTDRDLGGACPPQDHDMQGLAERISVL
Procedure: as §1

MARK3 = MARK3 (Homo sapiens, UniProt P27448)
Procedure: as §1

DAPK2 = DAPK2 (Homo sapiens, UniProt Q9UIK4); conditions: for Inhibition at 1 µM (%): DAPK2, LanthaScreen Binding
Procedure: as §1

CDC42 BPB (MRCKB) = CDC42 BPB (MRCKB) (Homo sapiens, UniProt Q9Y5S2); conditions: 1 h, 1 μM WEL028, 1 h preincubation
Procedure: as §1

[1] = 1 h, 1 μM WEL028, 1 h preincubation

Sequence of STK33 (Q9BYT3 whole entry, species assumed): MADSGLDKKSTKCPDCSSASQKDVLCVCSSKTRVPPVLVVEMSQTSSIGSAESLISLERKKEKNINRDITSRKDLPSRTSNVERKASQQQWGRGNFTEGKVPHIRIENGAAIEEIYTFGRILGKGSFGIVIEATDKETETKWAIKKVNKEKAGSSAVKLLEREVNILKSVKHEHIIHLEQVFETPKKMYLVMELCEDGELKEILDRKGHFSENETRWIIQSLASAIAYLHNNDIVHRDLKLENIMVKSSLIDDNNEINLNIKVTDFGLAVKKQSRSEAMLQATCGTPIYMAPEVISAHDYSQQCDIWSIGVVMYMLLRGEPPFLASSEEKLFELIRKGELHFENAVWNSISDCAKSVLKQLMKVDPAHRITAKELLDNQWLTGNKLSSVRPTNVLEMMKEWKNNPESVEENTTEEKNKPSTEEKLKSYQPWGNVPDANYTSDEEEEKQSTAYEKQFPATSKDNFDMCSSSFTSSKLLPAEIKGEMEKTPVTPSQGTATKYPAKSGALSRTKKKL
Sequence of DAPK2 (Q9UIK4 whole entry): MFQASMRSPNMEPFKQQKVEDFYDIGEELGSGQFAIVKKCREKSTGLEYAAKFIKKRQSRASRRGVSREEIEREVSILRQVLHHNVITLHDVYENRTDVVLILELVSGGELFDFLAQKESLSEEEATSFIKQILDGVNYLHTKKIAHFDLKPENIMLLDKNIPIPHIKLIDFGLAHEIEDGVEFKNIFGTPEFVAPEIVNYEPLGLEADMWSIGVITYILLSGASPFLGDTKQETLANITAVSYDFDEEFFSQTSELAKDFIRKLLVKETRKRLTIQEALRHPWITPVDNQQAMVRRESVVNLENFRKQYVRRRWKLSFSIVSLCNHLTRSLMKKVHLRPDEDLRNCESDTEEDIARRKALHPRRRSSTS
Sequence of MARK3 (P27448 whole entry): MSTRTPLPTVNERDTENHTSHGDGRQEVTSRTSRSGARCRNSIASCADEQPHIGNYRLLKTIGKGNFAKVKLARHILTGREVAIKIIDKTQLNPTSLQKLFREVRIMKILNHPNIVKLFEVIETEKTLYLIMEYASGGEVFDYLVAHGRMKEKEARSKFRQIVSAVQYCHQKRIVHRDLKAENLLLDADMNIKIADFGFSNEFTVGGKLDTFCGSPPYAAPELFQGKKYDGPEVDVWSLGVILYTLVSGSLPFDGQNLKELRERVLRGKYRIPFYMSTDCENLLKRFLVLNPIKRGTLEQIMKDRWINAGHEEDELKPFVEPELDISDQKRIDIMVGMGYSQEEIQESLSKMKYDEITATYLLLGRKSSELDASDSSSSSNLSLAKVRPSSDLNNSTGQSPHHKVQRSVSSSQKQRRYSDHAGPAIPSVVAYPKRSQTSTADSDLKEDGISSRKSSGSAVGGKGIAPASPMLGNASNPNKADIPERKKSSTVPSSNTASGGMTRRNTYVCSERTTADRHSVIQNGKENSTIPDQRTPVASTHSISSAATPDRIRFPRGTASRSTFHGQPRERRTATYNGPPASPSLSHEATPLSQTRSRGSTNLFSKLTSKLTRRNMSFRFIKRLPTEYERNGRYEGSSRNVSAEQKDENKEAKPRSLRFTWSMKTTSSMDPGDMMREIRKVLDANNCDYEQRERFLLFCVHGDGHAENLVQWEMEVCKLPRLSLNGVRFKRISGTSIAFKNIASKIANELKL
Sequence of BMPR1B (ALK6) (O00238 14-502): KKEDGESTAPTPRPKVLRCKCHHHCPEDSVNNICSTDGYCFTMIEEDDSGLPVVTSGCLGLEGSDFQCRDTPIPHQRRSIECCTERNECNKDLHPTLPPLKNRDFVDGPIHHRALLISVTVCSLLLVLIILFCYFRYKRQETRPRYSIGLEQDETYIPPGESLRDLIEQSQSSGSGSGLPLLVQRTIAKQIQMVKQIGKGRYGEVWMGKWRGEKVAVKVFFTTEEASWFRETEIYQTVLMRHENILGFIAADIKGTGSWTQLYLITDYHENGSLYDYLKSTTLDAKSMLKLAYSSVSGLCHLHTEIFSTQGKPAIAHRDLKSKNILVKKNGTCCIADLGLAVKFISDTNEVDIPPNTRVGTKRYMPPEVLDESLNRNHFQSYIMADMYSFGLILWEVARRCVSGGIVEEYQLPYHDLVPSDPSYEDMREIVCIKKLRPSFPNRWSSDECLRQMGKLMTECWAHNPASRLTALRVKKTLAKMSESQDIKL
Sequence of PRKG2 (PKG2) (Q13237 whole entry): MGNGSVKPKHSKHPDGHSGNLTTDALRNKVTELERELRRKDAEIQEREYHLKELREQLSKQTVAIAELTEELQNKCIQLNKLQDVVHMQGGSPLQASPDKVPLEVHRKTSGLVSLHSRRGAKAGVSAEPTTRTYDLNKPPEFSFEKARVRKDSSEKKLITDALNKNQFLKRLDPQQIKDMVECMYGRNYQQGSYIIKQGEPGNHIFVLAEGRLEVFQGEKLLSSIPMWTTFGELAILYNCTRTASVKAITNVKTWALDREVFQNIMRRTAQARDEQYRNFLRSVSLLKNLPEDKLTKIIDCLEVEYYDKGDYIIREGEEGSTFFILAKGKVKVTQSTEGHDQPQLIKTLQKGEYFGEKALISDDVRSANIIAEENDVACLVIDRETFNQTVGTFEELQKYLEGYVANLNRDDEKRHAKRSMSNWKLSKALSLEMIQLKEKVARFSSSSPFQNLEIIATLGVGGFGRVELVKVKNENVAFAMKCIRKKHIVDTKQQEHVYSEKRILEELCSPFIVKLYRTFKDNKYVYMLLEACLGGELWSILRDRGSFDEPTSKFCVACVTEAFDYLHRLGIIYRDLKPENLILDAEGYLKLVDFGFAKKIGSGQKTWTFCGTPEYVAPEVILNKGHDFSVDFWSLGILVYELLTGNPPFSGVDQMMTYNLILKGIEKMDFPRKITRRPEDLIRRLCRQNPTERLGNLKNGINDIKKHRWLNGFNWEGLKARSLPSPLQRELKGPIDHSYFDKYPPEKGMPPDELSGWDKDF
Sequence of CDC42 BPB (MRCKB) (Q9Y5S2 whole entry): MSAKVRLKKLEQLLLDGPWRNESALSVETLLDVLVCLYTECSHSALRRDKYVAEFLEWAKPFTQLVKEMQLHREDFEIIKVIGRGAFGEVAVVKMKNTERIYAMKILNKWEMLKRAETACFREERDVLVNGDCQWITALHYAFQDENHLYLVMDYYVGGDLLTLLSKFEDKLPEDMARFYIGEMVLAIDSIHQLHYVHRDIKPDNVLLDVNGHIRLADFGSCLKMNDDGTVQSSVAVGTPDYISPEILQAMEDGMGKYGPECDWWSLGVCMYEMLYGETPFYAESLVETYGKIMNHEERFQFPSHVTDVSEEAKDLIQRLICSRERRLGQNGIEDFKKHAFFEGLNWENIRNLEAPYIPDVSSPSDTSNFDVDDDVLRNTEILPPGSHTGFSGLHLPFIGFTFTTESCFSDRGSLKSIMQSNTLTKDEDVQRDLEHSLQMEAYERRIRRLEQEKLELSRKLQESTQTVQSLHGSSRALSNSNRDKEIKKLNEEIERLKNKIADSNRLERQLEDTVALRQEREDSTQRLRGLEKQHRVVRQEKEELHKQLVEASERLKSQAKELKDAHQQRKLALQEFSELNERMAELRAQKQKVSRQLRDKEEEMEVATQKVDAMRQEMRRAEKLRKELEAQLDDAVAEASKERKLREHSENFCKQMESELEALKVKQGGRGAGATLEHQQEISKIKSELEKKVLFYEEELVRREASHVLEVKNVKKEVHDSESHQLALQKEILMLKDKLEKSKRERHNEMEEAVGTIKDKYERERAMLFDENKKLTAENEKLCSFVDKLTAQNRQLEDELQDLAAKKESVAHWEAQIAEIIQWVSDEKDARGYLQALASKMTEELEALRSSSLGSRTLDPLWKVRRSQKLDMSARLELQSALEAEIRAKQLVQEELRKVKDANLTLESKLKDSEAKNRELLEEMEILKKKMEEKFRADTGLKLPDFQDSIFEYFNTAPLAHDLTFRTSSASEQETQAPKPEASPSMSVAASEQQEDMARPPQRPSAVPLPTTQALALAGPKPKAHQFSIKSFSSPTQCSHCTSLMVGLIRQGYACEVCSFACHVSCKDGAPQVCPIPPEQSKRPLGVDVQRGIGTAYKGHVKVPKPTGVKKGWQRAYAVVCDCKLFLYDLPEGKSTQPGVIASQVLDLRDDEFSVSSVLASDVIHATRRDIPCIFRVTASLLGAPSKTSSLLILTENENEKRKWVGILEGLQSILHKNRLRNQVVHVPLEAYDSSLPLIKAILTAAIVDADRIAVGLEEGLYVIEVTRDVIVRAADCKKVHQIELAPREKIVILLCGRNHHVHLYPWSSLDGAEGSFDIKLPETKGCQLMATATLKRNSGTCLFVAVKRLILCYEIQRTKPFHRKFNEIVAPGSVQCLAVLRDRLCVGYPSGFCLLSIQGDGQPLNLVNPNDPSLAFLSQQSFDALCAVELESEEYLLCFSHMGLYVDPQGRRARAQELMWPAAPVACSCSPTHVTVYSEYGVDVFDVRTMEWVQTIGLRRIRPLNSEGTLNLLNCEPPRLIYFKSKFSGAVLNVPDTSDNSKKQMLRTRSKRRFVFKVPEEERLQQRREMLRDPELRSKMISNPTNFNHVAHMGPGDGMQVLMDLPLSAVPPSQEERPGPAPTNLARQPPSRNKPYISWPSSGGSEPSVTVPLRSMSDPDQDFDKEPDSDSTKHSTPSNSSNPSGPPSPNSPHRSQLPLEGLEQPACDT

Compound: C#CCOc1ccc(Nc2ncc(Cl)c(Nc3ccccc3NC(=O)C=C)n2)c(OC)c1 [Compound 6]
- Inhibition at 1 µM (%) (PRKG2 (PKG2); 1 µM, ZLYTE, ATP Km app): 13%
- inhibition at 1 µM (PRKG2 (PKG2); [1]): 4%
- Inhibition (%) (LATS2; 1 μM WEL028, 1 h preincubation): 2%
- Inhibition at 1 µM (%) (LATS2): 3%
- Inhibition at 1 µM (%) (LATS2; listed as WEL028, 1 µM): 0%
- inhibition at 1 µM (BMPR1B (ALK6); 1 h): 24%
- inhibition at 1 µM (BMPR1B (ALK6); read-out: Inhibition at 1 µM (%)): 24%
- IC50 (STK33): 1000 nM
- Inhibition at 1 µM (%) (STK33; 1 µM, LanthaScreen Binding, listed as WEL028, 1 µM): 61%
- inhibition at 1 µM (STK33; [1]): 60%
- inhibition at 10 µM (STK33; 1 h, log[inhibitor] (M) -5.00, LanthaScreen Binding): 33%
- inhibition at 3.311 µM (STK33; 1 h, log[inhibitor] (M) -5.48, LanthaScreen Binding): 58%
- inhibition at 1.122 µM (STK33; 1 h, log[inhibitor] (M) -5.95, LanthaScreen Binding): 69%
- inhibition at 0.3715 µM (STK33; 1 h, log[inhibitor] (M) -6.43, LanthaScreen Binding): 43%
- inhibition at 0.123 µM (STK33; 1 h, log[inhibitor] (M) -6.91, LanthaScreen Binding): 23%
- inhibition at 0.04074 µM (STK33; 1 h, log[inhibitor] (M) -7.39, LanthaScreen Binding): 19%
- inhibition at 0.0138 µM (STK33; 1 h, log[inhibitor] (M) -7.86, LanthaScreen Binding): 6%
- inhibition at 0.004571 µM (STK33; 1 h, log[inhibitor] (M) -[…], LanthaScreen Binding): 7%
- Apparent fold selectivity (STK33; IC50 on that kinase divided by IC50 on FES^S700C): 254 fold
- inhibition at 1 µM (STK33; read-out: Inhibition at 1 µM (%), 1 µM, LanthaScreen Binding): 59%
- Inhibition at 1 µM (%) (PRKD2 (PKD2)): 2%
- Inhibition at 1 µM (%) (PRKD2 (PKD2); listed as WEL028, 1 µM): 5%
- inhibition at 1 µM (PRKD2 (PKD2); [1]): 3%
- inhibition at 1 µM (MARK3; [1]): 6%
- Inhibition at 1 µM (%) (MARK3; MARK3, 1 µM, ZLYTE, ATP Km app, listed as WEL028, 1 µM): 8%
- inhibition at 1 µM (MARK3; read-out: Inhibition at 1 µM (%), MARK3, 1 µM, ZLYTE, ATP Km app): 5%
- inhibition at 1 µM (DAPK2; [1]): 10%
- Inhibition at 1 µM (%) (DAPK2): 14%
- Inhibition at 1 µM (%) (DAPK2; listed as WEL028, 1 µM): 6%
- inhibition at 1 µM (CDC42 BPB (MRCKB)): 6%
